Laboratory results taken from ChEMBL document CHEMBL1201862, “PubChem BioAssay data set” (2004).
Calls of active or inactive are those of the source.

Tests used:
Protein Wnt-3a = Protein Wnt-3a (Mus musculus, UniProt P27467); test: Wnt3a-driven reporter signaling inhibition, dose response, selectivity assay for Gli-SUFU antagonist project, Wnt-LIGHT cells, luminescence (AID 651570); assay type: functional; conditions: read-out: IC50_Mean;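 also: Wnt-LIGHT reporter cells stimulated with conditioned medium from Wnt3a-producing cells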
[1] = LGR2 antagonists, dose response, cell-based, HEK293, CRE-luciferase reporter, cherry pick, set 2 (AID 743343); assay type: functional;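 also: transfected cells were stimulated with diluted bursicon conditioned medium after compound addition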
[2] = A549 cell cytotoxicity, dose response, cytotoxicity control, plate reader, cherry-pick, antagonist series (AID 743412); assay type: functional, cell-based
[3] = MC4R antagonists, dose response, counter-screen for LGR2 antagonist project, cell-based, plate reader, cherry pick (AID 743444); assay type: functional;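 also: transfected HEK 293 cells stimulated with alpha-MSH peptide; potency of inhibitors of the alpha-MSH evoked signal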
[4] = target: 5-hydroxytryptamine receptor 2A (Mus musculus, UniProt P35363); assay type: functional, cell-based;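 also: CHO-K1 cells with tagged receptor and beta-arrestin; agonist potency measured as compound-induced activation of the receptor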
Mu-type opioid receptor = Mu-type opioid receptor (Homo sapiens, UniProt P35372); assay type: functional, cell-based;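 also: U2OS cells with beta-arrestin recruitment to OPRM1 by beta-gal complementation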
[5] = target: T1, Sentrin-specific protease 7 (Homo sapiens, UniProt Q9BQF6); assay type: functional;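 also: Luminescence-based dose-response confirmation of ultra-high-throughput screening hits, measuring inhibition of SENP7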
T1 sequence (Q9BQF6 whole entry): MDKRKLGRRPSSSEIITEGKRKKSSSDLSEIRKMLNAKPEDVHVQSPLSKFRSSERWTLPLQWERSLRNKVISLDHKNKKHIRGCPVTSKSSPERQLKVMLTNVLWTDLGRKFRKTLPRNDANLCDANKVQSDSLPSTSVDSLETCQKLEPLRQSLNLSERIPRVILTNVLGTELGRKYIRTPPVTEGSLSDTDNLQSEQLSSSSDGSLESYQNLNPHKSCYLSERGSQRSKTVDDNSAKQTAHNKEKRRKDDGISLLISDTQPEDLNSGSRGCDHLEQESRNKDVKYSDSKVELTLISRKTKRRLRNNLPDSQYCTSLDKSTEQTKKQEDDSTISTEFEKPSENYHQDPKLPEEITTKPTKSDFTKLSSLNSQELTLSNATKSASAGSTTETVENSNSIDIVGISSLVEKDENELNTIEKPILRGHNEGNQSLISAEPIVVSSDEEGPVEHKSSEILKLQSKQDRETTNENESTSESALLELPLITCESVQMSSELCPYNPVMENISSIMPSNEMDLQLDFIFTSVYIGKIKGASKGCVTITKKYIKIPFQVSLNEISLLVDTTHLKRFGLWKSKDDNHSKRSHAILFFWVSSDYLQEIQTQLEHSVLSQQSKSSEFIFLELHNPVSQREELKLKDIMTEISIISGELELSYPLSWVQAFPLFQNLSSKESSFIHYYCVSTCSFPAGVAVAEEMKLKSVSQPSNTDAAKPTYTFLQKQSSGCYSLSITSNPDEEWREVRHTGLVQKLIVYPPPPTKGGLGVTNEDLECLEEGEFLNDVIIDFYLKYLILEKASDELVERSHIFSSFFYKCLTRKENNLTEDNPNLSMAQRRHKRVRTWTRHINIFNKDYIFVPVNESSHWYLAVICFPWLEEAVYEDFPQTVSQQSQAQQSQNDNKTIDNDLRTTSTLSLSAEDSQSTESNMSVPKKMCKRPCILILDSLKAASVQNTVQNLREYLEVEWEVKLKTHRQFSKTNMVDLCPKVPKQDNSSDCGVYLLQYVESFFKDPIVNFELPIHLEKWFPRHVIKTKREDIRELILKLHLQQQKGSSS

Caspase-3 = target: T2, Caspase-3 (Homo sapiens, UniProt P42574); assay type: functional;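 also: Dose-response selectivity test against caspase-3 for candidate inhibitors of sentrin-specific proteases (SENPs)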
T2 sequence (P42574 whole entry): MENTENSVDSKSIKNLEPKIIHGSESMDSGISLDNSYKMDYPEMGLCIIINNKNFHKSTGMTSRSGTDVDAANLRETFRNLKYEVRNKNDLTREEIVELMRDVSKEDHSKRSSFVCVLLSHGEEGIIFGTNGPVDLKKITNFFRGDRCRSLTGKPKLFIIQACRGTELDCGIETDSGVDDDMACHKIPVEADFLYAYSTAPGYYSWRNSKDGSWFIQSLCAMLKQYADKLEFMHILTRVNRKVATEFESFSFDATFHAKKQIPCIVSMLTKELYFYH

Coagulation factor XII = target: T3, Coagulation factor XII (Homo sapiens, UniProt P00748); assay type: functional;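 also: activated factor XIIa alpha cleaving a fluorogenic AMC peptide substrate; inhibitor potency from loss of enzyme activity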
T3 sequence (P00748 whole entry): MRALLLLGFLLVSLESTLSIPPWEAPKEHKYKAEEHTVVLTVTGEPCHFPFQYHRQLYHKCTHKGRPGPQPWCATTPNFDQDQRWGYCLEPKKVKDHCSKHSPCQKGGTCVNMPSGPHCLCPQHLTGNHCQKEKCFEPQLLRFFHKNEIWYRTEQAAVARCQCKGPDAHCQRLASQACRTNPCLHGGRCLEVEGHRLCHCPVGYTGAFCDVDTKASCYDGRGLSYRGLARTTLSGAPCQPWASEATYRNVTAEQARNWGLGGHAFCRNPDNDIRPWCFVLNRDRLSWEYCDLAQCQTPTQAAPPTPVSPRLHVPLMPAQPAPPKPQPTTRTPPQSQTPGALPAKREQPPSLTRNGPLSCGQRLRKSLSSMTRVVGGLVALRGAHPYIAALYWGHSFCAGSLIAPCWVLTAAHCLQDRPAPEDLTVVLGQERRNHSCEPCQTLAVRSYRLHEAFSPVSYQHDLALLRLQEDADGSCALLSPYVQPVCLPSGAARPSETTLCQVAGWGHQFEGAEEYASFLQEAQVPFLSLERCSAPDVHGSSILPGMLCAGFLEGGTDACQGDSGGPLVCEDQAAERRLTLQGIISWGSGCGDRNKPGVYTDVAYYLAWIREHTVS

[6] = target: T4, Sentrin-specific protease 8 (Homo sapiens, UniProt Q96LD8); assay type: functional;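 also: luminescence read-out of SENP8 inhibition, dose-response confirmation following an ultra-high-throughput screen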
T4 sequence (Q96LD8 whole entry): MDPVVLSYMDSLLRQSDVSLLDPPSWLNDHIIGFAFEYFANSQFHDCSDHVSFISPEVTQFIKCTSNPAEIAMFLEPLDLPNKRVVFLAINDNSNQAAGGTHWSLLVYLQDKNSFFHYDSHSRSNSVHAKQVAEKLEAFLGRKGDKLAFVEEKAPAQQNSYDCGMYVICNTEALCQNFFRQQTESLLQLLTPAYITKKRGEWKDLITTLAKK

[7] = target: T5, Sentrin-specific protease 6 (Homo sapiens, UniProt Q9GZR1); assay type: functional;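 also: Luminescence-based dose-response confirmatory assay of SENP6 inhibition, following up an ultra-high-throughput screen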
T5 sequence (Q9GZR1 whole entry): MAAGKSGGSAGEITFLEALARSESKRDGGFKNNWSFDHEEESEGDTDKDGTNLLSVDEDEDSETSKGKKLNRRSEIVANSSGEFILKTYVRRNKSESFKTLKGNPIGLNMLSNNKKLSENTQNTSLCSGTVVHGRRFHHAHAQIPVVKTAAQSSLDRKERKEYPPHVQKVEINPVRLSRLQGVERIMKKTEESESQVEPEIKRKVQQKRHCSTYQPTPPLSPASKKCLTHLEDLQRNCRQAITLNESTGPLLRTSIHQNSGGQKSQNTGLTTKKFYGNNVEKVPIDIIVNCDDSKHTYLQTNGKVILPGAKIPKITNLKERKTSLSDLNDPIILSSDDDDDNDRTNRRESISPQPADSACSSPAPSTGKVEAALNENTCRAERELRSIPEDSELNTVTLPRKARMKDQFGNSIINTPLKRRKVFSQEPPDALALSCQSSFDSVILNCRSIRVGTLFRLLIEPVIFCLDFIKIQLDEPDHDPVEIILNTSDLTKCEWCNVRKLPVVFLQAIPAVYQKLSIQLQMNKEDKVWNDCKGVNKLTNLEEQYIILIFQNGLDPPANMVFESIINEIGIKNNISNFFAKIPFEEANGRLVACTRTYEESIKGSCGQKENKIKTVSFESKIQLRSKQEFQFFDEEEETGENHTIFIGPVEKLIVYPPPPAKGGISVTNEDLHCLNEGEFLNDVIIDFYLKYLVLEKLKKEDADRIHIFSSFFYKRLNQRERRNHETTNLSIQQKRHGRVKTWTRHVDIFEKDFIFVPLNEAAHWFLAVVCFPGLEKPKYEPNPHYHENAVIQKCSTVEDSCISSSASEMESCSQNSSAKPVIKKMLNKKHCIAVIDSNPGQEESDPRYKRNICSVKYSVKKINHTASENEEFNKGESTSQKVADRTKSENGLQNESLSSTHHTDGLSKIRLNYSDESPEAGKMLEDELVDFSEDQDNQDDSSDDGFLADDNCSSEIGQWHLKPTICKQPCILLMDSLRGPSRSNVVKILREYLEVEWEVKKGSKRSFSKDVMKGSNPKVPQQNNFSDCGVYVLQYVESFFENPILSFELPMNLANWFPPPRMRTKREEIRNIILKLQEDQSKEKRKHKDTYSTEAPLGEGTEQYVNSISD

Estrogen receptor beta = Estrogen receptor beta (Homo sapiens, UniProt Q92731);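 also: recombinant ER-beta bound to coactivator SRC1 peptide in presence of estradiol agonist; inhibitors block coactivator peptide binding and lower the FRET signal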
[8] = THP-1 cell cytotoxicity, dose response, cytotoxicity control for Vif-APOBEC3G degradation inhibitor project, THP-1 cells (AID 1117359); assay type: functional; conditions: Human immunodeficiency virus 1, THP-1
Aminopeptidase N = target: T6, Aminopeptidase N (Plasmodium falciparum FcB1/Columbia, UniProt O96935); test: P. falciparum M1AAP inhibitors, biochemical, fluorogenic H-Leu-NHMec substrate, 1536-well (AID 1445); set-up: species or system Plasmodium falciparum 3D7, 3D7
T6 sequence (O96935 whole entry): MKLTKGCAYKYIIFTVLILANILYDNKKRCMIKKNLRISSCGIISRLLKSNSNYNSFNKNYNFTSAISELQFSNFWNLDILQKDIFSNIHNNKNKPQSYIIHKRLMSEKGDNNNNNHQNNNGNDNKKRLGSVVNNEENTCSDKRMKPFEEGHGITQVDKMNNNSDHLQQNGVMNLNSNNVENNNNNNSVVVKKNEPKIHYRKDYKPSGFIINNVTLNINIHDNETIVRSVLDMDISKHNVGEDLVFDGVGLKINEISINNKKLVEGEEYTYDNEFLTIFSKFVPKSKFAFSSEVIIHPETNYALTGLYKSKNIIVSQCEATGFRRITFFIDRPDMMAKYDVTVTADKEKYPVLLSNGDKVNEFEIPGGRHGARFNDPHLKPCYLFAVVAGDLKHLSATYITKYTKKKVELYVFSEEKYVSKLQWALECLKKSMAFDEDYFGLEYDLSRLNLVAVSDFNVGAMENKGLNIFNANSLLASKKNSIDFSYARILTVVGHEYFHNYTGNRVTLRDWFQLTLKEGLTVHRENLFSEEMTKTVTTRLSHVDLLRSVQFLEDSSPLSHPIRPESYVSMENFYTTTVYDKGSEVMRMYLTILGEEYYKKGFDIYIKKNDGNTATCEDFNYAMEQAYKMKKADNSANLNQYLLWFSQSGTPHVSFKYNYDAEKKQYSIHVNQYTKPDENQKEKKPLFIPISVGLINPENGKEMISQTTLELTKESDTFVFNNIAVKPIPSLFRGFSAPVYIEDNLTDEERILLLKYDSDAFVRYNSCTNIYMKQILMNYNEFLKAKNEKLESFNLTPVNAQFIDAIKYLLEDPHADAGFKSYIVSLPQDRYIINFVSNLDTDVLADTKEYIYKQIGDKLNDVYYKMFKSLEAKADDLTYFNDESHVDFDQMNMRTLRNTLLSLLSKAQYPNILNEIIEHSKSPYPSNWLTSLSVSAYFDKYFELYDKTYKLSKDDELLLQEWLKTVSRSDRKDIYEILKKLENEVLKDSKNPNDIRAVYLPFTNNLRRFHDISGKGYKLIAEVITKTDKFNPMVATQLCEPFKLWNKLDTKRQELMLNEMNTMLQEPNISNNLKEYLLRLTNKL

Mu-type opioid receptor, sequence (P35372 whole entry): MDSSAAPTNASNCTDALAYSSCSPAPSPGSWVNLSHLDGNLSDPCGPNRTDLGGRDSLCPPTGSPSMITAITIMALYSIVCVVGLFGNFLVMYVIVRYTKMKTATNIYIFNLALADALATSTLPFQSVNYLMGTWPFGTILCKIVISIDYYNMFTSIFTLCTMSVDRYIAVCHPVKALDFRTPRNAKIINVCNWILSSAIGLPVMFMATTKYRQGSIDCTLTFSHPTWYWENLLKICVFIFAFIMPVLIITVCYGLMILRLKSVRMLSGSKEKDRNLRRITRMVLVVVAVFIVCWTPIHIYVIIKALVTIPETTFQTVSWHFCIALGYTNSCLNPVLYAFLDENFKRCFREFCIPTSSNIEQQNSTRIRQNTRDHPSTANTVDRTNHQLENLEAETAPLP
5-hydroxytryptamine receptor 2A, sequence (P35363 whole entry): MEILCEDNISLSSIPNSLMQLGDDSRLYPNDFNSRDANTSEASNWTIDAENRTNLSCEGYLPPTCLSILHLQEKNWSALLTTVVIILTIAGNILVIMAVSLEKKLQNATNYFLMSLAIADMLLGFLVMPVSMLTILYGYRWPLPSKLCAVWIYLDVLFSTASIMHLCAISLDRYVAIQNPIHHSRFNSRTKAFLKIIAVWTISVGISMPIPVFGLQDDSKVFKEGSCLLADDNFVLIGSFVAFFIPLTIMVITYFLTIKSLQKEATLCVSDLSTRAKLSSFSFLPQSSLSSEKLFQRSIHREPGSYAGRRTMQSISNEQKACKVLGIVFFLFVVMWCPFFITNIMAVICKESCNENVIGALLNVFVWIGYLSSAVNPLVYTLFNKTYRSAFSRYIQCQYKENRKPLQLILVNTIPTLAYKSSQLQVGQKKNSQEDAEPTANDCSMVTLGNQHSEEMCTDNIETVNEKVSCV
Estrogen receptor beta, sequence (Q92731 whole entry): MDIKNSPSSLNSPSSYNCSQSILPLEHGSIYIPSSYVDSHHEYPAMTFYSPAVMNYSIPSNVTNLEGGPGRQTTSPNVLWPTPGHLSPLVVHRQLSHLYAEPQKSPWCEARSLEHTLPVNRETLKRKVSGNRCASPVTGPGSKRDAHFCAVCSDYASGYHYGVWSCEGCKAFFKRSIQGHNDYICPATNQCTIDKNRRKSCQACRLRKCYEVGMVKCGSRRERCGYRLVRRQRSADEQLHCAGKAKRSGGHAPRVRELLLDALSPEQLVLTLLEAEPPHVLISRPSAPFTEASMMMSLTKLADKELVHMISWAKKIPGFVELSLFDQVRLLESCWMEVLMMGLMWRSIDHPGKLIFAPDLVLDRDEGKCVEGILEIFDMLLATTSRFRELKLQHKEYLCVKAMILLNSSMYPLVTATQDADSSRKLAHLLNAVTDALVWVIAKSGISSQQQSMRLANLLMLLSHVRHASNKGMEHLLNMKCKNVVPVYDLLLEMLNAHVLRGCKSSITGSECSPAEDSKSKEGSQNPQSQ
Protein Wnt-3a, sequence (P27467 whole entry): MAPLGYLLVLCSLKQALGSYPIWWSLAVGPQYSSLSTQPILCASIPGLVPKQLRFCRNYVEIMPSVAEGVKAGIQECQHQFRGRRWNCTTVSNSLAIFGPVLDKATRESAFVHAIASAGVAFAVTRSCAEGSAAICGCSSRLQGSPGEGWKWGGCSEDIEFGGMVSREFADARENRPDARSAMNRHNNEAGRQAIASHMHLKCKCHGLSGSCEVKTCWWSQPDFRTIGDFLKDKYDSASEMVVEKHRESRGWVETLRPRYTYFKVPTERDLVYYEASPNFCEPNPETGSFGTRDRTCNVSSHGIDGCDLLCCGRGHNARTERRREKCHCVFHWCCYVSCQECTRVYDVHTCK

In the case of `COc1ccc2c(c1)c(C)cc[n+]2Cc1ccccc1`, the IC50 (Protein Wnt-3a) is reported as 2.07 µM (active).

With `CC(=O)N1CCCCN2[C@H](CO)[C@H](c3ccc(-c4cccc(C)c4)cc3)[C@@H]2C1` the AC50 [1] was 19.2 µM (active), the AC50 [2] was > 52 µM (inactive) and the AC50 [3] was 9.64 µM (active).

With `Cc1ccc(CN2CCN(c3ncccn3)CC2)o1` the EC50 [4] was 4 µM (active) and the EC50 (Mu-type opioid receptor) was 92.4 µM (inactive).

For `Cc1ccc(C)c(-c2nc3cc(N)ccc3o2)c1`, the IC50 [5] was 9.65 µM (active), the IC50 (Caspase-3) was 27.5 µM (active) and the IC50 (Coagulation factor XII) was > 50 µM (inactive). For the same compound, the IC50 [6] was 31.1 µM (active) and the IC50 [7] was 25.2 µM (active).

In the case of `c1ccc(-c2cn3c([n+]2-c2ccccc2)CCC3)cc1`, the IC50 (Protein Wnt-3a) is reported as 5.16 µM (active).

In the case of `O=C(CCc1ccccc1)Nc1ccc(N2CCOCC2)cc1`, the IC50 (Estrogen receptor beta) is reported as > 50 µM (not active).

In the case of `CC(C)(C)c1ccc(NC(=O)N2CCN(c3ccc([N+](=O)[O-])cn3)CC2)cc1`, the CC50 [8] is reported as 37.5 µM (active).

In the case of `CC(C)(C)c1ccc(-n2ncc3c2CCCC3NC(=O)CCN2CCCC2=O)cc1` (configuration not stated), the IC50 (Protein Wnt-3a) is reported as 0.973 µM (active).

For `O=[N+]([O-])c1cccnc1N1CCN(Cc2ccc3c(c2)OCO3)CC1`, the EC50 [4] was 0.00977 µM (active) and the EC50 (Mu-type opioid receptor) was 92.5 µM (inactive).

For `CC(C)n1c(-c2ccco2)cs/c1=N/c1cccnc1`, the IC50 (Protein Wnt-3a) was 10.5 µM (active).

In the case of `Cc1cccc(-n2c(SCc3cc(=O)n4c(C)cccc4n3)nc3nncc-3c2O)c1`, the IC50 (Estrogen receptor beta) is reported as > 50 µM (not active).

In the case of `CCOC(=O)N1CCN(Cc2ccc3c(c2)OCO3)CC1`, the EC50 [4] is reported as 1.19 µM (active) and the EC50 (Mu-type opioid receptor) is reported as 92.4 µM (inactive).

In the case of `CCOC(=O)Cc1nn(C)c(=O)c2ccccc12`, the IC50 (Estrogen receptor beta) is reported as > 50 µM (not active).

With `O=C(O)COc1ccccc1/C=N/NC(=O)CSc1nnc(SCc2ccc(Cl)cc2)s1` the IC50 [5] was 15.8 µM (active), the IC50 (Caspase-3) was 41.1 µM (active) and the IC50 [6] was > 100 µM (inactive). For the same compound, the IC50 [7] was 22.5 µM (active) and the IC50 (Aminopeptidase N) was 16.6 µM (active).
